Reference: article PMC10350924, “Design, Synthesis, and Pharmacological Characterization of a Potent Soluble Epoxide Hydrolase Inhibitor for the Treatment of Acute Pancreatitis” (Journal of Medicinal Chemistry, 2023)

How the values were obtained:
Human recombinant sEH = biological target: T1, Human recombinant sEH (Homo sapiens, UniProt P34913); test: Cell-free sEH activity (PHOME fluorescence); type: biochemical; details: human isolated sEH
T1 construct: made in house; host or cells: Sf9 insect cells (recombinant baculovirus)
T1 sequence (P34913 1-555): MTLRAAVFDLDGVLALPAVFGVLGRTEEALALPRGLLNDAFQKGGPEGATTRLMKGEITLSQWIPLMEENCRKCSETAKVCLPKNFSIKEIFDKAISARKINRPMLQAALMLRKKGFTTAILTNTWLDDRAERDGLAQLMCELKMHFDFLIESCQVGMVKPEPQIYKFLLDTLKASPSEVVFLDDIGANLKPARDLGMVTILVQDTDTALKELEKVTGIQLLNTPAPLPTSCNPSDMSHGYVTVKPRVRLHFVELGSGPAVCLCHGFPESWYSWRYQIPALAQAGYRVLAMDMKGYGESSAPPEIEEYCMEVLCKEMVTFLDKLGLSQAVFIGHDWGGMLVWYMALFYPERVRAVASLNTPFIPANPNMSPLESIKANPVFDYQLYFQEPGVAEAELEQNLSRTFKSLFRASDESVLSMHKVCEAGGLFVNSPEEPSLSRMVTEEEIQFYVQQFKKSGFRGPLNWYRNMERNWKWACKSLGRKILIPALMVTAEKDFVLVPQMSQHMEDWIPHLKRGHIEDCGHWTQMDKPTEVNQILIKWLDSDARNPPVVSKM
Method: Human recombinant sEH was expressed in Sf9 insect cells and purified by affinity chromatography. […] Elution with 4-fluorochalcone oxide in PBS pH 7.4 with 1 mM dithiothreitol and 1 mM EDTA yielded sEH, which was dialyzed and concentrated. Purified sEH (60 ng) in 25 mM Tris HCl pH 7 with 0.1 mg/mL bovine serum albumin (BSA) was preincubated with the vehicle (DMSO) or test compounds for 1 min at room temperature. The sEH substrate PHOME (20 μM, Cayman Chemicals) was added to start the enzymatic reaction, which was stopped after 60 min in the dark by the addition of ZnSO4 (200 mM).

5-LOX [1] = biological target: T2, 5-LOX (Homo sapiens, UniProt P09917); test: Cell-free 5-LOX activity assay; type: biochemical; set-up: made in house; host or cells: Escherichia coli Bl21 (DE3); details: for IC50: human isolated 5-LOX; for inhibition of 5-LOX activity, times lower than 6: isolated 5-LOX, relative to compound 6
T2 sequence (P09917 1-674): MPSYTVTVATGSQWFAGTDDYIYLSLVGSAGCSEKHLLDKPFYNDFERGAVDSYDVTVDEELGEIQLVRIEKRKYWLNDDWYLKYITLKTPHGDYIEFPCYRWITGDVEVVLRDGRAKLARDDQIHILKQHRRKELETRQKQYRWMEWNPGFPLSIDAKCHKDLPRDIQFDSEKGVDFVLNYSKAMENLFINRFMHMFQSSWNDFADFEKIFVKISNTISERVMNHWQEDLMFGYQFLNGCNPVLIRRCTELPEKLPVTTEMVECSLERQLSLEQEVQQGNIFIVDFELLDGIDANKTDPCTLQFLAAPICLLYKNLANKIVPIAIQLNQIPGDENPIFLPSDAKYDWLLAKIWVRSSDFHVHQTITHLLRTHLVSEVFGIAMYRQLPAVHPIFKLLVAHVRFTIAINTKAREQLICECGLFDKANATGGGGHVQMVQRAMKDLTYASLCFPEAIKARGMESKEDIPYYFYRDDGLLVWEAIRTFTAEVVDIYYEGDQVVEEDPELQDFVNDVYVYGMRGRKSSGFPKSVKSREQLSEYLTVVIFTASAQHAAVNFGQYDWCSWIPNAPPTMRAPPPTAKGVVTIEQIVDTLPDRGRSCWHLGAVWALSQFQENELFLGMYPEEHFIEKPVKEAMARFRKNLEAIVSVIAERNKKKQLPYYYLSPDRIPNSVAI
Method: Human recombinant 5-LOX was expressed in Escherichia coli Bl21 (DE3) cells that were transformed with the plasmid pT3-5LO (wt 5-LOX) and purified on an adenosine triphosphate (ATP)-agarose column by affinity chromatography.[40],[41] In a first step, E. coli was lysed in 50 mM triethanolamine/HCl pH 8.0 with ethylenediamine tetraacetic acid (EDTA) (5 mM), soybean trypsin inhibitor (60 μg/mL), phenylmethanesulfonyl fluoride (1 mM), dithiothreitol (1 mM), and lysozyme (1 mg/mL) and sonicated 3 times for 15 s. The homogenate was centrifuged at 40,000g for 20 min at 4 °C. The supernatant was transferred to an ATP-agarose column (Sigma-Aldrich, Deisenhofen, Germany), which was sequentially washed with phosphate-buffered saline (PBS) pH 7.4, 1 mM EDTA, 50 mM phosphate buffer pH 7.4, 0.5 M NaCl, 1 mM EDTA, and finally 50 mM phosphate buffer pH 7.4 plus 1 mM EDTA. The enzyme was eluted with 50 mM phosphate buffer pH 7.4, 1 mM EDTA, and 20 mM ATP.
5-LOX product formation was started by the addition of 20 μM arachidonic acid (Sigma-Aldrich) and CaCl2 (2 mM) and stopped by the addition of an equal volume of ice-cold methanol containing PGB1 (200 ng) as internal standard after 10 min at 37 °C.

5-LOX [2] = biological target: T2, 5-LOX; test: 5-LOX product formation in human activated PMNL (A23187); type: cell-based; set-up: Freshly isolated PMNL (5 × 10^6) suspended in PBS pH 7.4 with 1 mg/mL glucose were preincubated with the test compounds; endogenous in cells; host or cells: human PMNL from donor blood; remaining activity: dose or concentration left out as unconfirmed; details: for remaining activity at 10 µM / IC50: human activated PMNL; for remaining activity at 10 µM: read-out: 5-LOX residual activity in PMNL (%) at 10 μM; for remaining activity: PMNL, read-out: 5-LO residual activity in PMNL (%)
Method: Human PMNL were freshly isolated from leukocyte concentrates that were obtained from the Institute for Transfusion Medicine of the University Hospital Jena (Germany). […] These volunteers regularly donated blood (every 8–12 weeks) and were physically inspected by a clinician. […] Leukocytes were concentrated by centrifugation (4000g/20 min/20 °C) of freshly withdrawn blood. […] PMNL were obtained from the cell pellet. […] The reaction was stopped with an equal volume of methanol containing PGB1 (200 ng) as internal standard. Major 5-LOX products (all-trans isomers of LTB and 5-HETE, and additionally LTB4) were extracted and analyzed by RP-HPLC as described for the determination of cell-free 5-LOX activity.

| SMILES | IC50 (Human recombinant sEH) | IC50 (5-LOX [1]) | remaining activity at 10 µM (5-LOX [2]) | remaining activity (5-LOX [2]) | inhibition of 5-LOX activity, times lower than 6 (5-LOX [1]) | IC50 (5-LOX [2]) |
| --- | --- | --- | --- | --- | --- | --- |
| O=C(Nc1ccc2c(c1)CCN2Cc1ccc(F)cc1)C12C[C@H]3C[C@@H](C1)C[C@@H](C2)C3 [Compound 3, (3R,5R,7R)-N-(1-(4-Fluorobenzyl)indolin-5-yl)adamantane-1-carboxamide] | 285 ± 31.2 nM | 74 ± 18 nM | 53.2 ± 9.9% | 53.2 ± 9.9% |  |  |
| CC1(C)C2CC[C@@]1(CS(=O)(=O)Nc1ccc3c(c1)CCN3Cc1ccc(F)cc1)C(=O)C2 [Compound 4, 1-((1S)-7,7-Dimethyl-2-oxobicyclo[2.2.1]heptan-1-yl)-N-(1-(4-fluorobenzyl)indolin-5-yl)methanesulfonamide] | 1800 ± 460 nM | 171 ± 66 nM | 2.5 ± 2.5% | 2.5 ± 2.5% | around 2.5 times | 2560 nM |
| O=C(NCC12C[C@H]3C[C@@H](C1)C[C@@H](C2)C3)Nc1ccc2c(c1)CCN2Cc1ccc(F)cc1 [Compound 5, 1-(((3R,5R,7R)-Adamantan-1-yl)methyl)-3-(1-(4-fluorobenzyl)indolin-5-yl)urea] | 11.1 ± 6 nM | 78 ± 53 nM | 79.7 ± 2.8% | 73.7 ± 2.8% |  |  |
| O=C(NCc1cccc2ccccc12)Nc1ccc2c(c1)CCN2Cc1ccc(F)cc1 [Compound 7, 1-(1-(4-Fluorobenzyl)indolin-5-yl)-3-(naphthalen-1-ylmethyl)urea] | 36.1 ± 7.5 nM | 148 ± 28 nM | 56.3 ± 5.1% | 56.3 ± 5.1% | ~2 times |  |
| CN1CCCN(CCNC(=O)Nc2ccc3c(c2)CCN3Cc2ccc(F)cc2)CC1 [Compound 8, 1-(1-(4-Fluorobenzyl)indolin-5-yl)-3-(2-(4-methyl-1,4-diazepan-1-yl)ethyl)urea] | > 10000 nM | > 1000 nM | 71.1 ± 6.6% | 71.1 ± 6.6% |  |  |
| Fc1ccc(CN2CCc3cc(NC(=S)NCC45C[C@H]6C[C@@H](C4)C[C@@H](C5)C6)ccc32)cc1 [Compound 10, 1-(((3R,5R,7R)-Adamantan-1-yl)methyl)-3-(1-(4-fluorobenzyl)indolin-5-yl)thiourea] | 288 ± 220 nM | > 1000 nM |  |  |  |  |
| O=C(NCC12C[C@H]3C[C@@H](C1)C[C@@H](C2)C3)Nc1ccc2c(c1)CCN2Cc1ccc(C(=O)O)cc1 [Compound 14, 4-((5-(3-(((3R,5R,7R)-Adamantan-1-yl)methyl)ureido)indolin-1-yl)methyl)benzoic Acid] | 24.1 ± 4.1 nM | > 1000 nM | 57.7 ± 9.6% | 57.7 ± 9.6% |  |  |
| COC(=O)c1ccc(Cn2ccc3cc(NC(=O)NCC45C[C@H]6C[C@@H](C4)C[C@@H](C5)C6)ccc32)cc1 [Compound 29, Methyl 4-((5-(3-(((3R,5R,7R)-Adamantan-1-yl)methyl)ureido)-1H-indol-1-yl)methyl)benzoate] | 11.4 ± 3.6 nM | > 1000 nM | 65.1 ± 9.4% | 65.1 ± 9.4% |  |  |
| COC(=O)CCCn1ccc2cc(NC(=O)NCC34C[C@H]5C[C@@H](C3)C[C@@H](C4)C5)ccc21 [Compound 32, Methyl 4-(5-(3-(((3R,5R,7R)-Adamantan-1-yl)methyl)ureido)-1H-indol-1-yl)butanoate] | 21.3 ± 11.9 nM | > 1000 nM | 30.1 ± 4.8% | 30.1 ± 4.8% |  | 6830 ± 840 nM |
| O=C(Nc1ccc2c(ccn2Cc2ccc(F)cc2)c1)NC12C[C@H]3C[C@@H](C1)C[C@@H](C2)C3 [Compound 33, 1-((3S,5S,7S)-Adamantan-1-yl)-3-(1-(4-fluorobenzyl)-1H-indol-5-yl)urea] | 13.4 ± 3.1 nM | > 1000 nM |  | 97.8 ± 0.3% |  |  |
| O=C(NCC12C[C@H]3C[C@@H](C1)C[C@@H](C2)C3)Nc1ccc2c(ccn2Cc2ccc(C(=O)O)cc2)c1 [Compound 37, 4-((5-(3-(((3R,5R,7R)-Adamantan-1-yl)methyl)ureido)-1H-indol-1-yl)methyl)benzoic Acid] | 15.1 ± 7.7 nM | > 1000 nM | 2.1 ± 1.1% | 2.1 ± 1.1% |  | 4400 ± 420 nM |
| O=C(O)CCCn1ccc2cc(NC(=O)NCC34C[C@H]5C[C@@H](C3)C[C@@H](C4)C5)ccc21 [Compound 38, 4-(5-(3-(((3R,5R,7R)-Adamantan-1-yl)methyl)ureido)-1H-indol-1-yl)butanoic Acid] | 53.3 ± 15.9 nM | > 1000 nM | 41.2 ± 7.8% | 41.2 ± 7.8% |  | 8150 ± 1860 nM |
| NCCCn1ccc2cc(NC(=O)NCC34CC5CC(CC(C5)C3)C4)ccc21 [Compound 39, 1-(((3R,5R,7R)-Adamantan-1-yl)methyl)-3-(1-(3-aminopropyl)-1H-indol-5-yl)urea] | 27.2 ± 11.8 nM | > 1000 nM | 51.8 ± 13% | 51.8 ± 13% |  |  |
| NCc1ccc(Cn2ccc3cc(NC(=O)NCC45C[C@H]6C[C@@H](C4)C[C@@H](C5)C6)ccc32)cc1 [Compound 42, 1-(((3R,5R,7R)-Adamantan-1-yl)methyl)-3-(1-(4-(aminomethyl)benzyl)-1H-indol-5-yl)urea] | 14.9 ± 4.6 nM | > 1000 nM | 6.6 ± 4% | 6.6 ± 4% |  | 6190 ± 2410 nM |
| O=C(NCC12C[C@H]3C[C@@H](C1)C[C@@H](C2)C3)Nc1ccc2c(ccn2-c2ccc(F)cc2)c1 [Compound 45, 1-(((3R,5R,7R)-Adamantan-1-yl)methyl)-3-(1-(4-fluorophenyl)-1H-indol-5-yl)urea] | 4.4 ± 0.5 nM | > 1000 nM | 80.9 ± 1.7% | 80.9 ± 1.7% |  |  |
| O=C(NCC12C[C@H]3C[C@@H](C1)C[C@@H](C2)C3)Nc1ccc2c(c1)c1ccccc1n2Cc1ccc(F)cc1 [Compound 48, 1-(((3R,5R,7R)-Adamantan-1-yl)methyl)-3-(9-(4-fluorobenzyl)-9H-carbazol-3-yl)urea] | 20 ± 3.8 nM | > 1000 nM | 92.6 ± 4% | 92.6 ± 4% |  |  |
